Patent publication US20250163104A1, “MACROCYCLIC IMMUNOMODULATORS” (priority 2021, published 2025)
Where a SMILES comes first, the peptide text is derived from it. Bridges are numbered along the chain shown (N, C = ends). [ ]: non-standard residue; d: D form. The star is where a group is joined. ξ: configuration not given here. Phe(4-CONH2) = NC(=O)c1ccc(C[C@H](N)C(=O)O)cc1; Phe(4-COOH) = N[C@@H](Cc1ccc(C(=O)O)cc1)C(=O)O; Bip = N[C@@H](Cc1ccc(-c2ccccc2)cc1)C(=O)O; Phe(3-OMe) = COc1cccc(C[C@H](N)C(=O)O)c1; Phe(3-Me) = Cc1cccc(C[C@H](N)C(=O)O)c1; Dap(N3) = [N-]=[N+]=NC[C@H](N)C(=O)O; Val(3-OH) = CC(C)(O)[C@H](N)C(=O)O; 3Pal = N[C@@H](Cc1cccnc1)C(=O)O; 4Pal = N[C@@H](Cc1ccncc1)C(=O)O; Cha = N[C@@H](CC1CCCCC1)C(=O)O; Cit = NC(=O)NCCC[C@H](N)C(=O)O; Gly(cPr) = N[C@H](C(=O)O)C1CC1; Ile(3ξ) = CCC(C)[C@H](N)C(=O)O; Thr(3ξ) = CC(O)[C@H](N)C(=O)O; Carboxymethyl = O=C(O)C*; Orn = NCCC[C@H](N)C(=O)O; Pra = C#CC[C@H](N)C(=O)O; Dab = NCC[C@H](N)C(=O)O; Nva = CCC[C@H](N)C(=O)O; Dap = NC[C@H](N)C(=O)O

biological target: T1, human PD-1 / PD-L1-Ig binding on Jurkat cell line over-expressing human PD-1 (Jurkat-PD-1) (Homo sapiens, UniProt Q15116); assay: Jurkat-PD-1 Cell Binding High-Content Screening Assay (CBA); type: cell-based; conditions: Jurkat-PD-1 cells, PE-labeled PD-L1-Ig 20 nM final; read-out: Jurkat HPD1_PDL1 IC50
T1 construct: expressed in transfected cells; host or cells: Jurkat
Procedure, shortened: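 Read-out: high-content imaging of PE-tagged PD-L1-Ig bound to Jurkat cells overexpressing human PD-1, after fixation with 4% paraformaldehyde and Hoechst 33342 nuclear staining. Ligand was used at 20 nM final for 1 hour, after a 2 h compound exposure at 37° C in serum-containing DMEM.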

T1 sequence (Q15116 25-288): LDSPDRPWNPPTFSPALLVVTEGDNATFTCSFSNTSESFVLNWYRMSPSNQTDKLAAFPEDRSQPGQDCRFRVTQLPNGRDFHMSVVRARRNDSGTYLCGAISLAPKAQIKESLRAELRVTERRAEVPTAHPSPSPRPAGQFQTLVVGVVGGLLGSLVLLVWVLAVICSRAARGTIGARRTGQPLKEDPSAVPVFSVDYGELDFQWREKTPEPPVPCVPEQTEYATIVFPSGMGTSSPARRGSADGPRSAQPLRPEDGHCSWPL

Row | SMILES | IC50
1 | CC(C)C[C@H]1NC(=O)[C@H](CCCN)NC(=O)[C@H](CCCCN)NC(=O)[C@H](Cc2ccc(-c3ccccc3)cc2)NC(=O)[C@H](C(C)C)NC(=O)[C@H](Cc2c[nH]c3ccccc23)NC(=O)[C@H](CC(=O)O)NC(=O)[C@H](Cc2ccncc2)NC(=O)[C@H](CN)NC(=O)CSC[C@@H](C(=O)N[C@@H](CCCN)C(N)=O)NC(=O)[C@H](CN)NC(=O)[C@H](C(C)C)NC(=O)[C@H](CC2CCCCC2)NC(=O)[C@H](CCN)NC1=O [Compound 2251] ({CH2CO}-[Dap][4Pal]DWV[Bip]K[Orn][dL][Dab][Cha]V[Dap]C[Orn]-NH2; thioether N-14) | 139 nM
2 | C#CC[C@H](NC(=O)[C@@H]1CSCC(=O)N[C@@H](CCC)C(=O)N[C@@H](Cc2ccc(OCC(=O)O)cc2)C(=O)N[C@@H](CC(=O)O)C(=O)N[C@@H](Cc2cccc(C)c2)C(=O)N[C@@H](Cc2ccc(OCC(=O)O)cc2)C(=O)N[C@@H](Cc2ccc(-c3ccccc3)cc2)C(=O)N[C@@H](Cc2ccc(OCC(=O)O)cc2)C(=O)N[C@@H](CCCN)C(=O)N[C@H](CC(C)C)C(=O)N[C@@H](CCC)C(=O)N[C@@H](CC2CCCCC2)C(=O)N[C@@H](C(C)C)C(=O)N[C@@H](CCC(=O)O)C(=O)N1)C(=O)O [Compound 2701] ({CH2CO}-[Nva]Y(Carboxymethyl)D[Phe(3-Me)]Y(Carboxymethyl)[Bip]Y(Carboxymethyl)[Orn][dL][Nva][Cha]VEC[Pra]-OH; thioether N-14) | 163 nM
3 | C#CC[C@H](NC(=O)[C@@H]1CSCC(=O)N[C@@H](CN)C(=O)N[C@@H](CN=[N+]=[N-])C(=O)N[C@@H](CC(=O)O)C(=O)N[C@@H](Cc2c[nH]c3ccccc23)C(=O)N[C@@H](C(C)C)C(=O)N[C@@H](Cc2ccc(-c3ccccc3)cc2)C(=O)N[C@@H](CCC(=O)O)C(=O)N[C@@H](CCCN)C(=O)N[C@H](CC(C)C)C(=O)N[C@@H](CCN)C(=O)N[C@@H](CC2CCCCC2)C(=O)N[C@@H](C(C)C)C(=O)N[C@@H]([C@@H](C)O)C(=O)N1)C(N)=O [Compound 1539] ({CH2CO}-[Dap][Dap(N3)]DWV[Bip]E[Orn][dL][Dab][Cha]VTC[Pra]-NH2; thioether N-14) | 85.7 nM
4 | Cc1cccc(C[C@@H]2NC(=O)[C@H](CC(=O)O)NC(=O)[C@H](Cc3ccc(OCC(=O)O)cc3)NC(=O)[C@H](CCCNC(=N)N)NC(=O)CSC[C@@H](C(N)=O)NC(=O)[C@H]([C@@H](C)O)NC(=O)[C@H](C(C)C)NC(=O)[C@H](CC3CCCCC3)NC(=O)[C@H](CCN)NC(=O)[C@@H](CC(C)C)NC(=O)[C@H](CCCN)NC(=O)[C@H](Cc3ccc(OCC(=O)O)cc3)NC(=O)[C@H](Cc3ccc(-c4ccccc4)cc3)NC(=O)[C@H](Cc3ccc(O)cc3)NC2=O)c1 [Compound 2056] ({CH2CO}-RY(Carboxymethyl)D[Phe(3-Me)]Y[Bip]Y(Carboxymethyl)[Orn][dL][Dab][Cha]VTC-NH2; thioether N-14) | 27.5 nM
5 | CC(C)C[C@H]1NC(=O)[C@H](CCCN)NC(=O)[C@H](CCCNC(N)=O)NC(=O)[C@H](Cc2ccc(-c3ccccc3)cc2)NC(=O)[C@H](C2CC2)NC(=O)[C@H](Cc2c[nH]c3ccccc23)NC(=O)[C@H](CC(=O)O)NC(=O)[C@H](Cc2ccc(OCC(=O)O)cc2)NC(=O)[C@H](CN)NC(=O)CSC[C@@H](C(=O)N[C@@H](C)C(N)=O)NC(=O)[C@H]([C@@H](C)O)NC(=O)[C@H](C(C)C)NC(=O)[C@H](CC2CCCCC2)NC(=O)[C@H](CCN)NC1=O [Compound 1369] ({CH2CO}-[Dap]Y(Carboxymethyl)DW[Gly(cPr)][Bip][Cit][Orn][dL][Dab][Cha]VTCA-NH2; thioether N-14) | 19.9 nM
6 | Cc1cccc(C[C@@H]2NC(=O)[C@H](CC(=O)O)NC(=O)[C@H](Cc3ccc(OCC(=O)O)cc3)NC(=O)[C@H](C(C)O)NC(=O)CSC[C@@H](C(=O)N[C@H](CC(N)=O)C(N)=O)NC(=O)[C@H](CO)NC(=O)[C@H](C(C)(C)O)NC(=O)[C@H](CC3CCCCC3)NC(=O)[C@H](CCN)NC(=O)[C@@H](CC(C)C)NC(=O)[C@H](CCCN)NC(=O)[C@H](Cc3ccc(O)cc3)NC(=O)[C@H](Cc3ccc(-c4ccccc4)cc3)NC(=O)[C@H](Cc3ccc(C(N)=O)cc3)NC2=O)c1 (stereo partly drawn) [Compound 2658] ({CH2CO}-[Thr(3ξ)]Y(Carboxymethyl)D[Phe(3-Me)][Phe(4-CONH2)][Bip]Y[Orn][dL][Dab][Cha][Val(3-OH)]SC[dN]-NH2; thioether N-14) | 25.9 nM

Now those with a lower IC50, led by results:

Row | IC50 | SMILES
7 | 6.1 nM | COc1cccc(C[C@@H]2NC(=O)[C@H](CC(=O)O)NC(=O)[C@H](Cc3ccc(C(=O)O)cc3)NC(=O)[C@H](Cc3ccncc3)NC(=O)CSC[C@@H](C(=O)N[C@@H](C)C(N)=O)NC(=O)[C@H]([C@@H](C)O)NC(=O)[C@H](C(C)C)NC(=O)[C@H](CC(C)C)NC(=O)[C@H](CCN)NC(=O)[C@@H](CC(C)C)NC(=O)[C@H](CCCN)NC(=O)[C@H](C(C)C)NC(=O)[C@H](Cc3ccc(-c4ccccc4)cc3)NC(=O)[C@H](C(C)C)NC2=O)c1 [Compound 1183] ({CH2CO}-[4Pal][Phe(4-COOH)]D[Phe(3-OMe)]V[Bip]V[Orn][dL][Dab]LVTCA-NH2; thioether N-14)
8 | 4.7 nM | Cc1cccc(C[C@@H]2NC(=O)[C@H](CC(=O)O)NC(=O)[C@H](Cc3ccc(C(=O)O)cc3)NC(=O)[C@H](Cc3ccncc3)NC(=O)CSC[C@@H](C(=O)N[C@@H](C)C(N)=O)NC(=O)[C@H]([C@@H](C)O)NC(=O)[C@H](C(C)C)NC(=O)[C@H](CC3CCCCC3)NC(=O)[C@H](CCN)NC(=O)[C@@H](CC(C)C)NC(=O)[C@H](CCCN)NC(=O)[C@H](C(C)C)NC(=O)[C@H](Cc3ccc(-c4ccccc4)cc3)NC(=O)[C@H](C(C)C)NC2=O)c1 [Compound 1194]
9 | 11.3 nM | CC(C)C[C@H]1NC(=O)[C@H](CCCN)NC(=O)[C@H](C(C)C)NC(=O)[C@H](Cc2ccc(-c3ccccc3)cc2)NC(=O)[C@H](C(C)C)NC(=O)[C@H](Cc2c[nH]c3ccccc23)NC(=O)[C@H](CC(=O)O)NC(=O)[C@H](Cc2ccc(OCC(=O)O)cc2)NC(=O)[C@H](CN)NC(=O)CSC[C@@H](C(=O)N[C@@H](C)C(N)=O)NC(=O)[C@H](Cc2cnc[nH]2)NC(=O)[C@H](C(C)C)NC(=O)[C@H](CC2CCCCC2)NC(=O)[C@H](CCN)NC1=O [Compound 1750] ({CH2CO}-[Dap]Y(Carboxymethyl)DWV[Bip]V[Orn][dL][Dab][Cha]VHCA-NH2; thioether N-14)
10 | 4.5 nM | Cc1cccc(C[C@@H]2NC(=O)[C@H](CC(=O)O)NC(=O)[C@H](Cc3ccc(C(=O)O)cc3)NC(=O)[C@H](C(C)O)NC(=O)CSC[C@@H](C(=O)N[C@@H](CCN)C(N)=O)NC(=O)[C@H](CO)NC(=O)[C@H](C(C)(C)O)NC(=O)[C@H](CC3CCCCC3)NC(=O)[C@H](CCN)NC(=O)[C@@H](CC(C)C)NC(=O)[C@H](CCCN)NC(=O)[C@H](Cc3ccc(OCC(=O)O)cc3)NC(=O)[C@H](Cc3ccc(-c4ccccc4)cc3)NC(=O)[C@H](Cc3ccc(C(=O)O)cc3)NC2=O)c1 (stereo partly drawn) [Compound 2635] ({CH2CO}-[Thr(3ξ)][Phe(4-COOH)]D[Phe(3-Me)][Phe(4-COOH)][Bip]Y(Carboxymethyl)[Orn][dL][Dab][Cha][Val(3-OH)]SC[Dab]-NH2; thioether N-14)
11 | 16.1 nM | CCC(C)[C@@H]1NC(=O)[C@H](Cc2ccc(-c3ccccc3)cc2)NC(=O)[C@H](C(C)C)NC(=O)[C@H](Cc2c[nH]c3ccccc23)NC(=O)[C@H](CC(=O)O)NC(=O)[C@H](Cc2cccnc2)NC(=O)[C@H](CC(N)=O)NC(=O)CSC[C@@H](C(=O)N[C@@H](C)C(N)=O)NC(=O)[C@H]([C@@H](C)O)NC(=O)[C@H](C(C)C)NC(=O)[C@H](CC2CCCCC2)NC(=O)[C@H](CCN)NC(=O)[C@@H](CC(C)C)NC(=O)[C@H](CCCN)NC1=O (stereo partly drawn) [Compound 2228] ({CH2CO}-N[3Pal]DWV[Bip][Ile(3ξ)][Orn][dL][Dab][Cha]VTCA-NH2; thioether N-14)
12 | 7.8 nM | CC(C)C[C@H]1NC(=O)[C@H](CCCN)NC(=O)[C@H](C(C)C)NC(=O)[C@H](Cc2ccc(-c3ccccc3)cc2)NC(=O)[C@H](C(C)C)NC(=O)[C@H](Cc2c[nH]c3ccccc23)NC(=O)[C@H](CC(=O)O)NC(=O)[C@H](Cc2ccc(C(=O)O)cc2)NC(=O)[C@H](Cc2ccc(OCC(=O)O)cc2)NC(=O)CSC[C@@H](C(=O)N[C@@H](C)C(N)=O)NC(=O)[C@H](Cc2cnc[nH]2)NC(=O)[C@H](C(C)C)NC(=O)[C@H](CC2CCCCC2)NC(=O)[C@H](CCN)NC1=O [Compound 1751] ({CH2CO}-Y(Carboxymethyl)[Phe(4-COOH)]DWV[Bip]V[Orn][dL][Dab][Cha]VHCA-NH2; thioether N-14)
13 | 5.4 nM | Cc1cccc(C[C@@H]2NC(=O)[C@H](CC(=O)O)NC(=O)[C@H](Cc3ccc(OCC(=O)O)cc3)NC(=O)[C@H](Cc3ccncc3)NC(=O)CSC[C@@H](C(=O)N[C@@H](C)C(N)=O)NC(=O)[C@H]([C@@H](C)O)NC(=O)[C@H](C(C)C)NC(=O)[C@H](CC3CCCCC3)NC(=O)[C@H](CCN)NC(=O)[C@@H](CC(C)C)NC(=O)[C@H](CCCN)NC(=O)[C@H](C(C)C)NC(=O)[C@H](Cc3ccc(-c4ccccc4)cc3)NC(=O)[C@H](C(C)C)NC2=O)c1 [Compound 1200]
14 | 6.8 nM | C#CC[C@H](NC(=O)[C@H](CCN)NC(=O)[C@@H]1CSCC(=O)N[C@@H](CCCN)C(=O)N[C@@H](Cc2ccc(OCC(=O)O)cc2)C(=O)N[C@@H](CC(=O)O)C(=O)N[C@@H](Cc2cccc(C)c2)C(=O)N[C@@H](Cc2ccc(OCC(=O)O)cc2)C(=O)N[C@@H](Cc2ccc(-c3ccccc3)cc2)C(=O)N[C@@H](Cc2ccc(OCC(=O)O)cc2)C(=O)N[C@@H](CCCN)C(=O)N[C@H](CC(C)C)C(=O)N[C@@H](CCN)C(=O)N[C@@H](CC2CCCCC2)C(=O)N[C@@H](C(C)C)C(=O)N[C@@H](CO)C(=O)N1)C(N)=O [Compound 1855] ({CH2CO}-[Orn]Y(Carboxymethyl)D[Phe(3-Me)]Y(Carboxymethyl)[Bip]Y(Carboxymethyl)[Orn][dL][Dab][Cha]VSC[Dab][Pra]-NH2; thioether N-14)
